Patent publication US20220133641A1, “TOPICAL FILM-FORMING SPRAY” (GRACE THERAPEUTICS INC., priority 2015, published 2022)
Structures can show the parent of a compound that is named as a salt.

Legend:
[1] = In-vivo study in healthy rats, drug plasma concentration after 4 sprays; details: rat, topical
Experimental: A total of 4 sprays were applied (two sprays on the back and two sprays on the abdominal area of the animal) using a metered dose mechanical spray pump. Blood samples were collected at 15, 30 minutes, 1, 2, 4, 8 and 24 hours. All samples were analyzed using a validated analytical LC-MS method.

[2] = Solubility study for drug saturation in spray vehicle (Example 45); format: physicochemical
Experimental: Solubility studies to find out concentration at which the drug is present at saturation levels were performed as follows: The drug (bupivacaine hydrochloride 2, 4, 8, 10,12 & 16 mg) was added to, propylene glycol, oleyl alcohol and menthol in ethanol under stirring and mixing till clear solution is formed. The film-forming polymer in the clear drug solution was added while stirring till polymer dissolves or hydrates completely.

CCCCN1CCCCC1C(=O)Nc1c(C)cccc1C (stereo not shown) [Bupivacaine HCl]
concentration at 0 h ([1]; 8 mg strength): 1 ng/mL
concentration at 0.25 h ([1]; 8 mg strength): 82 ng/mL
concentration at 0.5 h ([1]; 8 mg strength): 119 ng/mL
concentration at 1 h ([1]; 8 mg strength): 148 ng/mL
concentration at 2 h ([1]; 8 mg strength): 95 ng/mL
concentration at 4 h ([1]; 8 mg strength): 221 ng/mL
concentration at 8 h ([1]; 8 mg strength): 147 ng/mL
concentration at 24 h ([1]; 8 mg strength): 55 ng/mL
concentration at 0 h ([1]; 12 mg strength): 0 ng/mL
concentration at 0.25 h ([1]; 12 mg strength): 73 ng/mL
concentration at 0.5 h ([1]; 12 mg strength): 109 ng/mL
concentration at 1 h ([1]; 12 mg strength): 249 ng/mL
concentration at 2 h ([1]; 12 mg strength): 180 ng/mL
concentration at 4 h ([1]; 12 mg strength): 270 ng/mL
concentration at 8 h ([1]; 12 mg strength): 329 ng/mL
concentration at 24 h ([1]; 12 mg strength): 172 ng/mL
appearance of drug solution on standing ([2]; 16 mg of drug): precipitated out from clear solution after standing
appearance of drug solution on standing ([2]; other solutions (2, 4, 8, 10, 12 mg)): clear and no precipitate was observed
concentration at which drug saturation was achieved ([2]; propylene glycol, oleyl alcohol, menthol, ethanol, film-forming polymer): about 12 mg per spray
